Source: patent publication US20080081021A1, “Manganese-enhanced magnetic resonance imaging of neurons using electrical stimulation” (priority 2006, published 2008)
Where two headings read alike, the source gives them in different places.

How the values were obtained:
[1] = tested on: rat spinal cord (gray matter, white matter, cortical spinal tract); conditions: for *T1CST: cortical spinal tract in spinal cord; for *T1CST / T1GM / T1WM: 1 M MnCl2 0.2 μL bilateral intracortical, 9.4 T; for T1GM: gray matter of spinal cord, mean±SD, four rats; for T1WM: white matter of spinal cord
Experimental: (§1) The experiments were conducted on twelve Sprague-Dawley rats weighing between 300 and 350 g under a protocol approved by the University of Kansas Medical Center Institutional Animal Care and Use Committee. Six rats were studied without electrical stimulation in the cortex and served as the control group. The remaining six rats formed the stimulation group.
The syringe was mounted on a micropositioner attached to a stereotaxic frame. The tip of the glass pipette was lowered perpendicular to the brain surface at the center of the first burr hole and inserted into the cortex through the exposed dura one millimeter below the pial surface. The syringe was emptied slowly to deliver 0.2 μL of the solution over a period of five minutes. To prevent backflow of solution, the pipette was left in place for another five minutes prior to withdrawal. This procedure was repeated for the contralateral motor area through the second burr hole.
To eliminate this problem, the burr holes in the skull of the rat from the stimulation group were first carefully drained of fluid. Electrical stimulation was then applied through a 1 mm diameter stainless steel electrode with the titanium screw serving as reference. The electrode was connected to a DS7 Digitimer constant current stimulator (Digitimer Ltd., Hertfordshire, England) and lowered through the first burr hole on the same side as the screw until it touched to dura. A Grass S48 stimulator (Grass Medical Instruments, Quincy, Mass.) generated the stimulus pulse sequence used to externally trigger the constant current stimulator. Trains of biphasic stimuli (each phase 0.2 ms, negative first) were applied at 100 Hz for an “on” period of 5 seconds followed by an “off” period of 5 seconds. […] Once threshold was determined, stimulation was applied at approximately twice the threshold for 90 minutes. If the strength of the evoked movement declined noticeably, frequency and current values were increased to maintain a constant motor response. These procedures were repeated for the opposite cortex through a second burr hole. With these settings, the total stimulation time was 180 minutes, 90 minutes for each side of the cortex. Immediately after stimulation, the electrodes were removed, and the skin was closed tightly with suture. The animal was then left to recover in its cage.
The animals were anesthetized using spontaneous inhalation of 4% isoflurane for induction, followed by a mixture of 1.5% isoflurane, 30% oxygen, and air delivered through a nose mask. The rat's head was stabilized on a Plexigas holder and positioned into a 6 cm inner diameter volume coil for MRI scanning on a 9.4 T horizontal Varian scanner (Varian Inc., Palo Alto, Calif.). While in the scanner, the physiological condition of the rat was monitored using ECG, respiratory and temperature probes that were connected to an MR-compatible small animal monitoring and gating system (Model 1025, SA Instruments, Inc., Stony Brook, N.Y.). The rat's temperature was kept at about 37° C. by circulating warm air with 40% humidity using a 5 cm diameter plastic tube fitted to the back door of the magnet bore.
The resulting data set consisted of axial images acquired independently at eight different TR values: 50, 100, 250, 500, 750, 2000, 3500, and 6000 ms with averages=10, 6, 6, 2, 2, 2, 2 and 2, respectively, and TE=12 ms. The other acquisition parameters were image matrix=128×128, field-of-view (FOV)=23×23 mm^2 and slice thickness=4 mm. The acquired data were analyzed quantitatively to produce a parametric T1 map of the spinal cord by following the procedures described previously in Bilgen et al., Ex vivo magnetic resonance imaging of rat spinal cord at 9.4 T, Magn. Reson. Imaging 23:601-605 (2005).
T1-maps were produced for four rats from each of the stimulated and control groups.

cortical spinal tract = conditions: 24 hours after injection
Experimental: as §1
The syringe was mounted on a micropositioner attached to a stereotaxic frame. The tip of the glass pipette was lowered perpendicular to the brain surface at the center of the first burr hole and inserted into the cortex through the exposed dura one millimeter below the pial surface. […]
To eliminate this problem, the burr holes in the skull of the rat from the stimulation group were first carefully drained of fluid. […] Once threshold was determined, stimulation was applied at approximately twice the threshold for 90 minutes. […]
The animals were anesthetized using spontaneous inhalation of 4% isoflurane for induction, followed by a mixture of 1.5% isoflurane, 30% oxygen, and air delivered through a nose mask. […] While in the scanner, the physiological condition of the rat was monitored using ECG, respiratory and temperature probes that were connected to an MR-compatible small animal monitoring and gating system (Model 1025, SA Instruments, Inc., Stony Brook, N.Y.). […]

[2] = control rats without electrical stimulation

manganese chloride
*T1CST [1, 2]: 1.43 ± 0.09 s | *T1CST ([1]; electrically stimulated rats): 1.24 ± 0.08 s | T1GM [1, 2]: 1.55 ± 0.05 s | T1GM ([1]; electrically stimulated rats): 1.54 ± 0.06 s | T1 in the cortical spinal tract shorter in electrically stimulated rats compared to controls ([1]; stimulated vs non-stimulated rats, both given MnCl2): about 20% | T1WM [1, 2]: 1.53 ± 0.06 s | T1WM ([1]; electrically stimulated rats): 1.51 ± 0.07 s | manganese enhancement of the cortical spinal tract (cortical spinal tract; non-stimulated rat): fades away as the cortical spinal tract approaches the spinal cord | labeling of the cortical spinal tract in the spinal cord (cortical spinal tract; with electrical stimulation of the cortex): more robust labeling of the cortical spinal tract in the spinal cord
